The values below come from US10556914B2, “Substituted isoxazolopyridazinones and isothiazolopyridazinones and methods of use” (AbbVie Inc., priority 2015, dated 2020).

Structures are written as SMILES.

As a reminder, the EC50 is the concentration that produces a half-maximal response.

Sequence of GABA-B receptor (Q9Z0U4 17-960): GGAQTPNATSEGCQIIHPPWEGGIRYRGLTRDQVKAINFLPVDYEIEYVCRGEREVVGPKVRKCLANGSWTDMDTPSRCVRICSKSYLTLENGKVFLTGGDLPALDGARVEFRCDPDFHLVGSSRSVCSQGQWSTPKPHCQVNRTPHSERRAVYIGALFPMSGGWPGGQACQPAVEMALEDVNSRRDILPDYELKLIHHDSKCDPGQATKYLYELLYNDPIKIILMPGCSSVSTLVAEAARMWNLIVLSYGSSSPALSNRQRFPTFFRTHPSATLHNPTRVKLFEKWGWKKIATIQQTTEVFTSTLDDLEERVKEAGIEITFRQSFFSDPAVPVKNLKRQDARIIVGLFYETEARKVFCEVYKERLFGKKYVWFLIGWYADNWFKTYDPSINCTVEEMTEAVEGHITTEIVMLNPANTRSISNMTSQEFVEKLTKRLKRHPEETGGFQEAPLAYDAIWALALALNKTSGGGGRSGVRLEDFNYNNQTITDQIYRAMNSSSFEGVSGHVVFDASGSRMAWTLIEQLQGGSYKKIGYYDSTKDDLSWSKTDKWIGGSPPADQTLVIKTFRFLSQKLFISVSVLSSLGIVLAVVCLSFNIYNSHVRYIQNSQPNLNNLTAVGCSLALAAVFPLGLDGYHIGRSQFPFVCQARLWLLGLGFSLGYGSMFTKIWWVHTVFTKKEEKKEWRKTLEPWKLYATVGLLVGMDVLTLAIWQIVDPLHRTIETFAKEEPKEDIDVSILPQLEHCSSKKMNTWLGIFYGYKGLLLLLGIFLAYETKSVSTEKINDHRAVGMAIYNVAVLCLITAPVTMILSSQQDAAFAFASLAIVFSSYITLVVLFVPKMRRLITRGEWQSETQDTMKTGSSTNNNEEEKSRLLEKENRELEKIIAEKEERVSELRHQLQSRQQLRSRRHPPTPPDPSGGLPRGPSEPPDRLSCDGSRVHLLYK
Sequence of GABA-B receptor (O88871 41-940): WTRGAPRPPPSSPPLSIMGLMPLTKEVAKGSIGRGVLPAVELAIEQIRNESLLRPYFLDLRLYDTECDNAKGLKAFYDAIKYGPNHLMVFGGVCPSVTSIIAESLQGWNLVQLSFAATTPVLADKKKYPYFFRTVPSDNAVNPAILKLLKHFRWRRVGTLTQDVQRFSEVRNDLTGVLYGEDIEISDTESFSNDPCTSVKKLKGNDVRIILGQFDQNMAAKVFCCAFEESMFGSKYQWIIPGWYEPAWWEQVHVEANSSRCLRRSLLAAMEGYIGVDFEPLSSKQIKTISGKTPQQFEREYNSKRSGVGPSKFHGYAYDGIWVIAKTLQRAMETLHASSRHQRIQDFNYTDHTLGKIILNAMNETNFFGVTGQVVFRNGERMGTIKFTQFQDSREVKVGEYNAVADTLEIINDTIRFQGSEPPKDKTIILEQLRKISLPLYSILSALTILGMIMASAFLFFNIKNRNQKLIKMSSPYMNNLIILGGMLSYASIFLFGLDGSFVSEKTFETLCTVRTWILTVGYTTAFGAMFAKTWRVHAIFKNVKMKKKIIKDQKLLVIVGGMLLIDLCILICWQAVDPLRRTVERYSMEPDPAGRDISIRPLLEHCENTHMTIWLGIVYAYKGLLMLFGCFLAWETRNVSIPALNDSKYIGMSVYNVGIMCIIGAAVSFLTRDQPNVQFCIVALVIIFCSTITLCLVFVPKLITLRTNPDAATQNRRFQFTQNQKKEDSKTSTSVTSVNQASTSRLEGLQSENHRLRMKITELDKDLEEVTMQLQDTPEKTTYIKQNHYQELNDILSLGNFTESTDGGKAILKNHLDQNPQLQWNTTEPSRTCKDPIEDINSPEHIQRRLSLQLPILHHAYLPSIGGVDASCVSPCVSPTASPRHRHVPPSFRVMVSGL

For this assay, the target named is GABA-B receptor (Rattus norvegicus (Rat), UniProt O88871+Q9Z0U4). Nature of the assay: [35S]GTPgS Binding Assay (rat brain cortex membranes, native receptor). It is filed as biochemical. Conditions: rat cortical membranes; in the presence of 1 μM GABA (EC25); basal binding 0%, maximal binding (1 mM GABA) 100%. How it is done:
Preparation of Rat Brain Membranes for Native Receptor Assays
Membranes from rat brain cortex were prepared as described in detail by Olpe et al. and stored at concentrations of 1.66 mg/mL protein at −80° C. until required. (Olpe, H.-R, et al. Eur J Pharmacol 1990; 187: 27-38).
[^35S]GTPgS Binding Assay
The samples were incubated at room temperature for 60 minutes on a shaker. The incubation was stopped by rapid vacuum filtration over glass-fiber filter plates (UniFilter-96 well, GF/B membrane plates, PerkinElmer) using a 96-well plate harvester (TOMTEK© Harvester). The UniFilter plate was washed five times with ice-cold wash buffer (50 mM Tris-HCl buffer, pH 7.7, 10 mM MgCl2, and 100 mM NaCl. After filtration the plate was dried for 90 minutes at 55° C. The plates were closed on the bottom with black sealing membranes, and liquid scintillation cocktail (35 μL, Betaplate Scint, PerkinElmer) was added to each well. After sealing the top of the plate, an additional incubation step of 90 minutes at room temperature followed before measuring the plate. The amount of membrane-bound [^35S]GTPgS was measured using a 96-well plate reader (Microbeta®, PerkinElmer). Nonspecific binding was measured in the presence of unlabeled 10 μM of GTPgS (Millipore) and without GABA. Basal binding was measured in the absence of 1 μM GABA, and maximal binding was measured in the presence of GABA using 1 mM GABA concentrations.
Data analysis. The concentration-response curves of compounds of the present disclosure in the presence of EC25 of GABA-B receptor agonist were generated using the GraphPad Prism® program (GraphPad Software, San Diego, Calif.). Data was normalized using basal binding as 0% and maximal binding as 100%. The curves were fitted by nonlinear regression allowing determination of EC50 values from sigmoidal dose-response curves. Each curve was performed using triplicate sample per date point and 10 concentrations.
Turning to `Cc1noc2c(-c3ccc(F)c(F)c3)nn(Cc3ccc(Cl)cc3)c(=O)c12` [Example 42, 5-(4-chlorobenzyl)-7-(3,4-difluorophenyl)-3-methyl[1,2]oxazolo[4,5-d]pyridazin-4(5H)-one], the EC50 was 9640 nM.
For `COc1ccc(NC(C)=O)cc1-c1nn(Cc2ccc(Cl)cc2)c(=O)c2c(C)noc12` [Example 45, N-{3-[5-(4-chlorobenzyl)-3-methyl-4-oxo-4,5-dihydro[1,2]oxazolo[4,5-d]pyridazin-7-yl]-4-methoxyphenyl}acetamide] the value was 376 nM.
To `COc1ccccc1-c1nn(Cc2cc(C(F)(F)F)ccc2F)c(=O)c2c(C)noc12` [Example 46, 5-[2-fluoro-5-(trifluoromethyl)benzyl]-7-(2-methoxyphenyl)-3-methyl[1,2]oxazolo[4,5-d]pyridazin-4(5H)-one] belongs 2290 nM.
To `COc1ccc(OC)c(-c2nn(Cc3ccc(Cl)cc3)c(=O)c3c(C4CC4)noc23)c1` [Example 47, 5-(4-chlorobenzyl)-3-cyclopropyl-7-(2,5-dimethoxyphenyl)[1,2]oxazolo[4,5-d]pyridazin-4(5H)-one] belongs 578 nM.
For the compound `COc1ccc(-c2nn(Cc3cc(C(F)(F)F)ccc3F)c(=O)c3c(C)noc23)c(OC)c1` [Example 48, 7-(2,4-dimethoxyphenyl)-5-[2-fluoro-5-(trifluoromethyl)benzyl]-3-methyl[1,2]oxazolo[4,5-d]pyridazin-4(5H)-one], the EC50 came out at 1550 nM.
To `CC(=O)Nc1ccc(OC(F)(F)F)c(-c2nn(C(C)c3ccc(Cl)cc3)c(=O)c3c(C)noc23)c1` (stereo not drawn) [Example 49, N-[3-{5-[1-(4-chlorophenyl)ethyl]-3-methyl-4-oxo-4,5-dihydro[1,2]oxazolo[4,5-d]pyridazin-7-yl}-4-(trifluoromethoxy)phenyl]acetamide] belongs 283 nM; to `CC(=O)Nc1cccc(-c2nn(Cc3ccc(Cl)cc3)c(=O)c3c(C4CC4)noc23)c1` [Example 51, N-{3-[5-(4-chlorobenzyl)-3-cyclopropyl-4-oxo-4,5-dihydro[1,2]oxazolo[4,5-d]pyridazin-7-yl]phenyl}acetamide], 1500 nM.
For `CCCc1noc2c(-c3cc(OC)ccc3OC)nn(Cc3ccc(Cl)cc3)c(=O)c12` [Example 52, 5-(4-chlorobenzyl)-7-(2,5-dimethoxyphenyl)-3-propyl[1,2]oxazolo[4,5-d]pyridazin-4(5H)-one] the value was > 10000 nM; for `Cc1noc2c(-c3cccc(S(N)(=O)=O)c3)nn(C(C)c3ccc(Cl)cc3)c(=O)c12` (stereo not drawn) [Example 53, 3-{5-[1-(4-chlorophenyl)ethyl]-3-methyl-4-oxo-4,5-dihydro[1,2]oxazolo[4,5-d]pyridazin-7-yl}benzenesulfonamide], 620 nM; for `COc1ccccc1-c1nn(Cc2ccc(F)c(C(F)(F)F)c2)c(=O)c2c(C)noc12` [Example 54, 5-[4-fluoro-3-(trifluoromethyl)benzyl]-7-(2-methoxyphenyl)-3-methyl[1,2]oxazolo[4,5-d]pyridazin-4(5H)-one], 1200 nM.
With `COc1ccc(NS(C)(=O)=O)cc1-c1nn(C(C)c2ccc(Cl)cc2)c(=O)c2c(C)noc12` (stereo not drawn) [Example 55, N-(3-{5-[1-(4-chlorophenyl)ethyl]-3-methyl-4-oxo-4,5-dihydro[1,2]oxazolo[4,5-d]pyridazin-7-yl}-4-methoxyphenyl)methanesulfonamide], the EC50 worked out at 80 nM.
To `Cc1noc2c(-c3cccs3)nn(Cc3ccc(Cl)cc3)c(=O)c12` [Example 56, 5-(4-chlorobenzyl)-3-methyl-7-(thiophen-2-yl)[1,2]oxazolo[4,5-d]pyridazin-4(5H)-one] belongs 982 nM; to `CC(=O)Nc1cccc(-c2nn(Cc3ccc(C(F)(F)F)cc3)c(=O)c3c(C)noc23)c1` [Example 57, N-(3-{3-methyl-4-oxo-5-[4-(trifluoromethyl)benzyl]-4,5-dihydro[1,2]oxazolo[4,5-d]pyridazin-7-yl}phenyl)acetamide], 3330 nM.
To `COc1ccc(C(N)=O)cc1-c1nn(C(C)c2ccc(Cl)cc2)c(=O)c2c(C)noc12` (stereo not drawn) [Example 59] belongs 17 nM; to `Cc1nn(CCc2ccc(Cl)cc2)c(=O)c2c(C)noc12` [Example 60, 5-[2-(4-chlorophenyl)ethyl]-3,7-dimethyl[1,2]oxazolo[4,5-d]pyridazin-4(5H)-one], > 10000 nM; to `CC(=O)Nc1cc(-c2nn(Cc3ccc(F)c(C(F)(F)F)c3)c(=O)c3c(C)noc23)ccc1F` [Example 61, N-(2-fluoro-5-{5-[4-fluoro-3-(trifluoromethyl)benzyl]-3-methyl-4-oxo-4,5-dihydro[1,2]oxazolo[4,5-d]pyridazin-7-yl}phenyl)acetamide], > 10000 nM.
Turning to `COc1ccc(F)cc1-c1nn(C(C)c2ccc(Cl)cc2)c(=O)c2c(C)noc12` (stereo not drawn) [Example 63, 5-[1-(4-chlorophenyl)ethyl]-7-(5-fluoro-2-methoxyphenyl)-3-methyl[1,2]oxazolo[4,5-d]pyridazin-4(5H)-one], the EC50 was 491 nM.
In the case of `COc1ccc(NC(C)=O)cc1-c1nn(Cc2ccc(C(F)(F)F)cc2)c(=O)c2c(C)noc12` [Example 64, N-(4-methoxy-3-{3-methyl-4-oxo-5-[4-(trifluoromethyl)benzyl]-4,5-dihydro[1,2]oxazolo[4,5-d]pyridazin-7-yl}phenyl)acetamide], the EC50 amounted to 644 nM.
To `Cc1noc2c(-c3cccc(N)c3C(N)=O)nn(C(C)c3ccc(Cl)cc3)c(=O)c12` (stereo not drawn) [Example 65, 2-amino-6-{5-[1-(4-chlorophenyl)ethyl]-3-methyl-4-oxo-4,5-dihydro[1,2]oxazxazolo[4,5-d]pyridazin-7-yl}benzamide] belongs 1850 nM.
For the compound `COc1ccc(Cn2nc(-c3ccc(F)cc3)c3onc(C)c3c2=O)cc1C(F)(F)F` [Example 66, 7-(4-fluorophenyl)-5-[4-methoxy-3-(trifluoromethyl)benzyl]-3-methyl[1,2]oxazolo[4,5-d]pyridazin-4(5H)-one], the EC50 stood at 2790 nM.
For `COc1ccccc1-c1nn(Cc2ccc(Cl)cc2)c(=O)c2c(C)noc12` [Example 67, 5-(4-chlorobenzyl)-7-(2-methoxyphenyl)-3-methyl[1,2]oxazolo[4,5-d]pyridazin-4(5H)-one] the value was 2130 nM; for `COc1ccc(OC)c(-c2nn([C@@H](C)c3ccc(Cl)cc3)c(=O)c3c(C4CC4)noc23)c1` [Example 68, 5-[(1S)-1-(4-chlorophenyl)ethyl]-3-cyclopropyl-7-(2,5-dimethoxyphenyl)[1,2]oxazolo[4,5-d]pyridazin-4(5H)-one], 48 nM; for `CC(=O)Nc1cccc(-c2nn(Cc3ccc(Cl)cc3)c(=O)c3c(C)noc23)c1` [Example 70, N-{3-[5-(4-chlorobenzyl)-3-methyl-4-oxo-4,5-dihydro[1,2]oxazolo[4,5-d]pyridazin-7-yl]phenyl}acetamide], 935 nM.
For `COCc1noc2c(-c3cc(OC)ccc3OC)nn(Cc3ccc(Cl)cc3)c(=O)c12` [Example 71, 5-(4-chlorobenzyl)-7-(2,5-dimethoxyphenyl)-3-(methoxymethyl)[1,2]oxazolo[4,5-d]pyridazin-4(5H)-one] the value was 2210 nM; for `CC(=O)Nc1cccc(-c2nn([C@@H](C)c3ccc(Cl)cc3)c(=O)c3c(C)noc23)c1` [Example 72, N-(3-{5-[(1S)-1-(4-chlorophenyl)ethyl]-3-methyl-4-oxo-4,5-dihydro[1,2]oxazolo[4,5-d]pyridazin-7-yl}phenyl)acetamide], 7700 nM; for `COc1ccc(C(=O)O)cc1-c1nn(C(C)c2ccc(Cl)cc2)c(=O)c2c(C)noc12` (stereo not drawn) [Example 73], 39 nM.
To `Cc1ccccc1-c1nn(Cc2ccc(Cl)cc2)c(=O)c2c(C)noc12` [Example 76, 5-(4-chlorobenzyl)-3-methyl-7-(2-methylphenyl)[1,2]oxazolo[4,5-d]pyridazin-4(5H)-one] belongs 1930 nM.
`Cc1noc2c(-c3cc(F)cc(F)c3N)nn(C(C)c3ccc(Cl)cc3)c(=O)c12` (stereo not drawn) [Example 77, 7-(2-amino-3,5-difluorophenyl)-5-[1-(4-chlorophenyl)ethyl]-3-methyl[1,2]oxazolo[4,5-d]pyridazin-4(5H)-one]: the EC50 turned out to be 2480 nM.
To `CC(=O)Nc1cccc(-c2nn(C(C)c3ccc(Cl)cc3)c(=O)c3c(C)noc23)c1` (stereo not drawn) [Example 78, N-(3-{5-[1-(4-chlorophenyl)ethyl]-3-methyl-4-oxo-4,5-dihydro[1,2]oxazolo[4,5-d]pyridazin-7-yl}phenyl)acetamide] belongs 6350 nM; to `COc1ccc(C(F)(F)F)cc1-c1nn(C(C)c2ccc(Cl)cc2)c(=O)c2c(C)noc12` (stereo not drawn) [Example 79, 5-[1-(4-chlorophenyl)ethyl]-7-[2-methoxy-5-(trifluoromethyl)phenyl]-3-methyl[1,2]oxazolo[4,5-d]pyridazin-4(5H)-one], 511 nM.
